25 compounds from ChEMBL document CHEMBL6103668, “In-Silico Screening-Based Discovery of New Natural eEF2K Inhibitors with Neuritogenic Activity” (ACS Med Chem Lett, 2025) can be followed below.

One series has as its system HT-22. As to the kind of experiment: Cytotoxicity against mouse HT-22 cells assessed as cell viability at 1.25 to 5 uM incubated for 24 hrs by CCK8 assay. As to conditions: ht-22, 24 h, dose 1.25-5 µM; call rule not given here. It is filed as toxicity, cell-based. (Formazan colour is commonly taken as a measure of viable cells.)
The subject of series [1] is N2a. As to the kind of experiment: Cytotoxicity against mouse Neuro2a cells assessed as cell viability at 1.25 to 5 uM incubated for 24 hrs by CCK8 assay. It is filed as toxicity, cell-based. As to conditions: dose 1.25-5 µM.
Series [2] has as its system N2a. As to the kind of experiment: Induction of neuronal differentiation in mouse Neuro2a cells assessed as neurite formation at 5 uM incubated for 48 hrs by DAPI staining based fluorescence microscopic analysis. It is filed as functional, cell-based.
The subject of series [3] is N2a. Put plainly: Induction of neuronal differentiation in mouse Neuro2a cells assessed as neurite elongation at 5 uM incubated for 48 hrs by DAPI staining based fluorescence microscopic analysis. It is filed as functional, cell-based.

For `C[C@@H]1O[C@@H](Oc2ccc(CNC(=S)NCc3ccc(O[C@@H]4O[C@@H](C)[C@H](O)[C@@H](O)[C@H]4O)cc3)cc2)[C@H](O)[C@H](O)[C@H]1O`, in the series with HT-22, the Activity entry is given as “Non-toxic”.
The same measure, in the same setting: the same measure for `C[C@@H]1CC[C@]2(C(=O)O)CC[C@]3(C)C(=CC[C@@H]4[C@@]5(C)CC[C@H](O[C@@H]6O[C@H](C(=O)O)[C@@H](O)[C@H](OS(=O)(=O)O)[C@H]6O)[C@@](C)(CO)[C@@H]5CC[C@]43C)[C@@H]2[C@]1(C)O`: “Non-toxic”; for `C[C@](O)(CC(=O)O)CC(=O)OC[C@H]1O[C@@H](OCc2ccccc2)[C@H](O)[C@@H](O)[C@@H]1O`: “Non-toxic”; for `O[C@H]1CC[C@H]2CN3CCc4c([nH]c5ccccc45)[C@@H]3C[C@@H]2C1`: “Non-toxic”.
On the same count and under the same terms, the same measure for `COc1cc2oc(-c3ccc(O)cc3)cc(=O)c2c(O)c1[C@@H]1O[C@H](CO)[C@@H](O)[C@H](O)[C@H]1O[C@@H]1O[C@H](CO)[C@@H](O)[C@H](O)[C@H]1O`: “Non-toxic”; for `COc1cc(O)c(C(=O)CC(C)C)c2c1[C@@H]1C[C@H](C(C)C)C=C[C@]1(C)O2`: “Non-toxic”.
Consider `C=C(c1[nH]c2ccccc2c1CN1C/C(=C/C)[C@@H]2CC(=O)c3[nH]c4ccccc4c3C[C@H]1C2C(=O)OC)[C@H]1CCN(C)C/C1=C\C` (stereo partly specified), for which the Activity entry is “Non-toxic” in the series on HT-22, “Toxic” with N2a [1], “Active; Significant Efficacy Observed” in the series with N2a [2] and “Active; Significant Efficacy Observed” with N2a [3].
As for `COc1cc([C@H](O)[C@H](CO)Oc2c(OC)cc([C@H](O)[C@H](O)CO)cc2OC)ccc1O` (mixture of isomers), the Activity result in the series on HT-22 is “Non-toxic”.
On the same count and under the same terms, then `O=C(O)[C@H]1O[C@@H](O[C@@H]2[C@@H](O)[C@@H](O)CO[C@H]2c2c(O)cc3oc(-c4ccc(O)c(O)c4)cc(=O)c3c2O)[C@H](O)[C@@H](O)[C@H]1O`, with “Non-toxic”; and `COc1ccc([C@@H]2c3cc(OC)c(O)cc3C[C@@H](C)[C@H]2C)cc1O`, with “Non-toxic”; and `O=C(O)[C@H]1O[C@@H](O[C@@H]2[C@@H](O)[C@H](O)[C@@H](CO)O[C@H]2c2c(O)cc3oc(-c4ccc(O)c(O)c4)cc(=O)c3c2O)[C@H](O)[C@@H](O)[C@H]1O`, with “Non-toxic”.
Same read-out and setting: then `O=C1c2c(O)cc(O)cc2O[C@H](c2cc(O)cc(O)c2)[C@H]1O`, with “Non-toxic”.
For the compound `O=C(O)C1=CC[C@@H]2C(C(=O)O)=CO[C@@H](O[C@@H]3O[C@H](CO)[C@@H](O)[C@H](O)[C@H]3O)[C@H]12` [IXOSIDE], the Activity result in the series on HT-22 is given as “Non-toxic”.
Same read-out and setting: then `O=c1cc(-c2ccccc2)oc2cc(O[C@@H]3O[C@H](CO[C@@H]4O[C@H](CO)[C@@H](O)[C@H](O)[C@H]4O)[C@@H](O)[C@H](O)[C@H]3O)c(O)c(O)c12`, with “Non-toxic”.
On to `O=c1c(O[C@@H]2O[C@H](CO)[C@@H](O)[C@H](O)[C@H]2O)c(-c2ccc(O)c(O)c2)oc2cc(O)cc(O)c12` [ISOQUERCETIN], for which the Activity result is listed as “Non-toxic” with HT-22, “Toxic” with N2a [1], “Active; Significant Efficacy Observed” in the series on N2a [2] and “Active; Significant Efficacy Observed” with N2a [3].
Consider `C[N+](C)(C)[C@H](Cc1c[nH]c2ccccc12)C(=O)[O-]` [HYPAPHORINE], for which the Activity result in the series on HT-22 is “Non-toxic”.
Still for that read-out and setting: then `C[C@@H]1O[C@@H](OC[C@H]2O[C@@H](Oc3c(-c4ccc(O)cc4)oc4cc(O)cc(O)c4c3=O)[C@H](O)[C@@H](O)[C@@H]2O)[C@H](O)[C@H](O)[C@H]1O` [NICOTIFLOROSIDE], with “Non-toxic”; and `C=C[C@H]1[C@H](O[C@@H]2O[C@H](CO)[C@@H](O)[C@H](O)[C@H]2O)OC=C(C(=O)O)[C@H]1CC(=O)O`, with “Non-toxic”.
Same read-out and setting: then `CC[C@H](CC[C@@H](C)[C@H]1CC[C@H]2[C@@H]3CC=C4C[C@@H](O[C@@H]5O[C@H](CO)[C@@H](O)[C@H](O)[C@H]5O)CC[C@]4(C)[C@H]3CC[C@]12C)C(C)C` [SITOGLUSIDE], with “Non-toxic”; and `COC(=O)[C@@H](Cc1ccc(O)c(O)c1)OC(=O)/C=C/c1ccc(OC)c(O)c1`, with “Non-toxic”.
The same measure, in the same setting: then `O=C1c2c(O)cc(O[C@@H]3O[C@H](CO)[C@@H](O)[C@H](O)[C@H]3O)cc2O[C@]1(O)Cc1ccc(O)cc1`, with “Non-toxic”.
For the compound `COc1cc([C@@H]2Oc3c(OC)cc(CCCO[C@@H]4O[C@H](CO)[C@@H](O)[C@H](O)[C@H]4O)cc3[C@H]2CO)ccc1O`, the Activity entry with HT-22 is recorded as “Non-toxic”.
Turning to `O=c1c(-c2ccc(O)cc2)coc2c([C@@H]3O[C@H](CO)[C@@H](O)[C@H](O)[C@H]3O)c(O)ccc12` [PUERARIN], in the series with HT-22, the Activity result is reported as “Non-toxic”.
Still for that read-out and setting: then `CC1=CC(=O)C[C@](C)(CO[C@@H]2O[C@H](CO)[C@@H](O)[C@H](O)[C@H]2O)[C@@]1(O)/C=C/C(C)=C/C(=O)O`, with “Non-toxic”; and `OC[C@H]1O[C@@H](Oc2c(O)cc(O)cc2[C@@H]2[C@@H](c3ccc(O)cc3)[C@H](c3ccc(O)cc3)[C@H]2c2cc(O)cc(O)c2O[C@@H]2O[C@H](CO)[C@@H](O)[C@H](O)[C@H]2O)[C@H](O)[C@@H](O)[C@@H]1O`, with “Non-toxic”.
